Reference: ChEMBL document CHEMBL4184317, “Discovery of Tetrahydroquinoxalines as Bromodomain and Extra-Terminal Domain (BET) Inhibitors with Selectivity for the Second Bromodomain” (J Med Chem, 2018)
In brackets after ≈: the same amount, converted by molar mass.

Key:
physchem = conditions: buffer
Description: Chromatographic hydrophobicity index, log D of the compound at pH 7.4 by HPLC method

[1] = target: Bromodomain-containing protein 4 (Homo sapiens, UniProt O60885, Y97A)
[2] = target: Bromodomain-containing protein 4 (Homo sapiens, UniProt O60885, Y390A)
[3] = target: T1, Bromodomain-containing protein 3 (Homo sapiens, UniProt Q15059); assay: Inhibition of BRD3 BD1 (unknown origin) after 30 mins by TR-FRET assay
T1 sequence (Q15059 whole entry, the tested form may be a part): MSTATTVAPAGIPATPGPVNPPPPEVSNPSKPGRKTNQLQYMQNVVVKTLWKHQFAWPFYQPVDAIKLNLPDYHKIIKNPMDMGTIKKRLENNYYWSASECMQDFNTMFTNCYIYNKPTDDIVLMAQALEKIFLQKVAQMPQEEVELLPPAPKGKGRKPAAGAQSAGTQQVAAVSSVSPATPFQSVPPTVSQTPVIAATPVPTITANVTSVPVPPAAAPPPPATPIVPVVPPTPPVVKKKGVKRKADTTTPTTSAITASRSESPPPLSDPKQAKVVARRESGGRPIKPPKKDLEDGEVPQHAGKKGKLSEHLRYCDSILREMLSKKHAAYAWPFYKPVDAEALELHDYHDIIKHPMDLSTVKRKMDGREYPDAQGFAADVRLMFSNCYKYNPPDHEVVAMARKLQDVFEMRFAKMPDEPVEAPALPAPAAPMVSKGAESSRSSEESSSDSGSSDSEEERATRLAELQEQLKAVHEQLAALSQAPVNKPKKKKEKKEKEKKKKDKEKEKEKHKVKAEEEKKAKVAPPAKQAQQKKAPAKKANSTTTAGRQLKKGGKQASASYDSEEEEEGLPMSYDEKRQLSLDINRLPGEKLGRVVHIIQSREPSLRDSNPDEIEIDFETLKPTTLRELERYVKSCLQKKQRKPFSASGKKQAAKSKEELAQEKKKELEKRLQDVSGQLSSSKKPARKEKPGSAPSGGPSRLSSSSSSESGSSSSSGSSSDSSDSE

Peregrin = target: T2, Peregrin (Homo sapiens, UniProt P55201); assay: Displacement of Alexa 647 ligand from 6H-Flag-Tev-BRPF1 (622 to 738 residues) (unknown origin) expressed in Escherichia coli BL21 (DE3) cells after 30 mins by TR-FRET assay
T2 sequence (P55201 whole entry): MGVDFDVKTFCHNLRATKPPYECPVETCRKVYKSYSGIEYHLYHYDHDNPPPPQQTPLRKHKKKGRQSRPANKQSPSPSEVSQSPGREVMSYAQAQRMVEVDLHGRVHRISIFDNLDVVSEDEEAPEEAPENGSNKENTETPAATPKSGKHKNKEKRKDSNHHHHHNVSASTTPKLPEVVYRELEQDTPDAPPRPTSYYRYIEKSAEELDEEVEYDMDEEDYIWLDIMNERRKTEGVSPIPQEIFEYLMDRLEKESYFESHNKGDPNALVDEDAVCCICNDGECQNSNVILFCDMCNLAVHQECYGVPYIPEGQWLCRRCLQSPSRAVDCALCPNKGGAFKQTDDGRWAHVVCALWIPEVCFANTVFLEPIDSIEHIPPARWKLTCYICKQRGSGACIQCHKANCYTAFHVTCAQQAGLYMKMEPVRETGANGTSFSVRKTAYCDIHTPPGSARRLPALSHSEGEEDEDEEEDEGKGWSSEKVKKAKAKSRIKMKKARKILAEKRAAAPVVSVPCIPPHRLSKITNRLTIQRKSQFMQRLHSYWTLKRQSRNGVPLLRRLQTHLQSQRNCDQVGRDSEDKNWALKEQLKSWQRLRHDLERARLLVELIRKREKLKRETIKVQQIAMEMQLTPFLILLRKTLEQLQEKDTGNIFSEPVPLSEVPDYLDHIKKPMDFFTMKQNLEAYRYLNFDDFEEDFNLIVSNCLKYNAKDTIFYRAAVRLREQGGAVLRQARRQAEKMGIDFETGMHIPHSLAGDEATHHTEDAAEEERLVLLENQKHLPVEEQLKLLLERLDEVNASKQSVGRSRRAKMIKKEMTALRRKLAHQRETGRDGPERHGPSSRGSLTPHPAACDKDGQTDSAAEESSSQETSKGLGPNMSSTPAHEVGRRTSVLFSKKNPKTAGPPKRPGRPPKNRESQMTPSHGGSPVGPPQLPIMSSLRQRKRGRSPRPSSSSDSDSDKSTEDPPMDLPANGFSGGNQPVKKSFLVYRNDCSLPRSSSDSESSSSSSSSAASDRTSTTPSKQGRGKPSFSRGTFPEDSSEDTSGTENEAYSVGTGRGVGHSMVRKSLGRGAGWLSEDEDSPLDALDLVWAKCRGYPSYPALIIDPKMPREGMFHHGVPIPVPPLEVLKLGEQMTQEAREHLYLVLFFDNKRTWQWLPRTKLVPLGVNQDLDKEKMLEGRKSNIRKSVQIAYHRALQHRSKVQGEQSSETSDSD

Homo sapiens [4] = species: Homo sapiens; assay: Selectivity ratio of IC50 for BRDT BD1 (unknown origin) to IC50 for BRDT BD2 (unknown origin)
[5] = target: T3, Bromodomain-containing protein 2 (Homo sapiens, UniProt P25440); assay: Inhibition of human BRD2 BD1 after 30 mins by TR-FRET assay
T3 sequence (P25440 whole entry): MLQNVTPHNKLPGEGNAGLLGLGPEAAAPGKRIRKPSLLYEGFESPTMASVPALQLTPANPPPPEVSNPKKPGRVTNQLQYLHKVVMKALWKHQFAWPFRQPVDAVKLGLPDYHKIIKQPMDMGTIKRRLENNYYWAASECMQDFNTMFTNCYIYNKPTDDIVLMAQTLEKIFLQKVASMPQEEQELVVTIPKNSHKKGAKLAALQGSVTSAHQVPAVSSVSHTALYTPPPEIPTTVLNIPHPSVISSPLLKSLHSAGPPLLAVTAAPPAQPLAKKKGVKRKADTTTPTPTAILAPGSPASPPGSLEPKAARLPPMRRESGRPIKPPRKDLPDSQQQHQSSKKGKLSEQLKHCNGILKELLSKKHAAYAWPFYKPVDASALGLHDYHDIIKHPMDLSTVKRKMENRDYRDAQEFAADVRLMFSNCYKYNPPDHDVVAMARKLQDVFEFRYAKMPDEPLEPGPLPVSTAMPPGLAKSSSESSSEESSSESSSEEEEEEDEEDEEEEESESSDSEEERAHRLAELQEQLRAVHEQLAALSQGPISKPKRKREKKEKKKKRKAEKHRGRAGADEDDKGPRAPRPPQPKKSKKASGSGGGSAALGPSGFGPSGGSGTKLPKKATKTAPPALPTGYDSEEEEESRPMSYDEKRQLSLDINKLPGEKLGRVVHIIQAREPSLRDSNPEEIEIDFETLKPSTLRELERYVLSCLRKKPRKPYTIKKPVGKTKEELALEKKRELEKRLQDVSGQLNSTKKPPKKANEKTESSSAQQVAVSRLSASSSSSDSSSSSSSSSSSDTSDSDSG

[6] = Permeability of the compound by PAMPA; format: ADME; conditions: read-out: permeability
Homo sapiens [7] = species: Homo sapiens; assay: Selectivity ratio of IC50 for human BRD2 BD1 to IC50 for human BRD2 BD2
[8] = target: T3, Bromodomain-containing protein 2; assay: Inhibition of human BRD2 BD2 after 30 mins by TR-FRET assay
Homo sapiens [9] = species: Homo sapiens; assay: Selectivity ratio of IC50 for BRD3 BD1 (unknown origin) to IC50 for BRD3 BD2 (unknown origin)
[10] = target: T4, Bromodomain testis-specific protein (Homo sapiens, UniProt Q58F21); assay: Inhibition of BRDT BD2 (unknown origin) after 30 mins by TR-FRET assay
[11] = target: T1, Bromodomain-containing protein 3; assay: Inhibition of BRD3 BD2 (unknown origin) after 30 mins by TR-FRET assay
[12] = target: T4, Bromodomain testis-specific protein; assay: Inhibition of BRDT BD1 (unknown origin) after 30 mins by TR-FRET assay
PBMC = assay: cells; conditions: Homo sapiens, read-out: pIC50 (converted)
Description: Antiinflammatory activity in human PBMC assessed as inhibition of LPS-induced MCP1 release preincubated for 30 mins followed by LPS challenge measured after 24 hrs by immunoassay

[13] = Solubility of the compound in FaSSIF at pH 6.5 after 16 hrs by HPLC method; format: physicochemical
[14] = Solubility of the compound in pH 7.4 phosphate buffered saline by chemiluminescent nitrogen detection method; format: physicochemical
Blood = assay: Antiinflammatory activity in human whole blood assessed as inhibition of LPS-induced MCP1 release preincubated for 30 mins followed by LPS challenge measured after 24 hrs by immunoassay; format: functional, tissue-based

SMILES | chromatographic logD (physchem; pH 7.4, logD) | IC50 [1] [nM] | IC50 [2] [nM] | other results
CC(=O)N1CCN(Cc2ccccc2)c2ccccc21 | 5.6 | 2510 | 10000 | 
CC(=O)N1c2ccccc2N(Cc2ccccc2C(=O)O)CC1C (centres undefined) | 1.5 | 1580 | 39800 | 
CC(=O)N1c2ccc(-c3ccc(C(=O)O)cc3)cc2[C@H](Nc2ccc(Cl)cc2)C[C@@H]1C | 3.9 |  |  | 
CC(=O)N1c2ccccc2N(Cc2cccc(C)c2)CC1C (centres undefined) | 6.5 | 1000 | 20000 | 
CC(=O)N1c2ccc(-c3cnc(C(N)=O)nc3)cc2N(Cc2ccccc2CO)C[C@@H]1C1CC1 | 3 | 50.1 | 2000 | IC50 [3]: 794 nM; IC50 (Peregrin): > 100000 nM; Ratio IC50 (Homo sapiens [4]): 5; IC50 [5]: 1580 nM; Papp [6]: 13.5 ×10⁻⁶ cm/s; Ratio IC50 (Homo sapiens [7]): 16; IC50 [8]: 100 nM; Ratio IC50 (Homo sapiens [9]): 25; IC50 [10]: 100 nM; IC50 [11]: 31.6 nM; IC50 [12]: 501 nM; IC50 (PBMC): 63.1 nM; solubility at 16 h [13]: 18 µg/mL (≈ 39.3 µM); solubility [14]: 87 µM (≈ 39.8 µg/mL); IC50 (Blood): 398 nM
CC(=O)N1c2ccccc2N(Cc2ccccc2CO)CC1C1CC1 (racemic) | 4.9 | 501 | 31600 | 
CCC1CN(Cc2ccccc2)c2cc(C3=CCNCC3)ccc2N1C(C)=O (centres undefined) |  | 158 | 3160 | chromatographic logD (physchem; pH 7.4): 2.8
CC(=O)N1c2ccccc2N(Cc2ccccc2N(C)C)CC1C1CC1 (centres undefined) | 7.5 | 501 | 20000 | IC50 (PBMC): 1580 nM
CCOC(=O)c1ccccc1CN1CC(C2CC2)N(C(C)=O)c2ccccc21 (centres undefined) | 7.2 | 1000 | 12600 | 
CC(=O)N1c2ccccc2N(Cc2ccc(Cl)cc2C(=O)O)CC1C1CC1 (centres undefined) | 2.9 | 1260 | 39800 | IC50 (PBMC): 12600 nM
CC(=O)N1c2ccccc2N(Cc2cccc(CO)c2)CC1C1CC1 (centres undefined) | 4.7 | 794 | 25100 | IC50 (PBMC): 631 nM
CC(=O)N1c2ccccc2N(Cc2ccccc2O)CC1C1CC1 (centres undefined) | 5.2 | 501 | 20000 | IC50 (PBMC): 1260 nM
CC(=O)N1c2ccccc2N(Cc2ccccc2CO)CC1C1CC1 (single isomer, unassigned; enantiomer 2) |  | > 50100 | > 50100 | 
CC(=O)N1c2ccccc2N(Cc2ccccc2C(=O)O)CC1C1CC1 (centres undefined) | 2.2 | 794 | > 50100 | IC50 (PBMC): 2510 nM
CC(=O)N1c2ccccc2N(Cc2cccc(C)c2)CC1C1CC1 (centres undefined) | 7.2 | 794 | 25100 | 
COc1ccccc1CN1CC(C2CC2)N(C(C)=O)c2ccccc21 (centres undefined) | 6.9 | 398 | 15800 | IC50 (PBMC): 2000 nM
CC(=O)N1c2ccccc2N(Cc2ccccc2CN)CC1C1CC1 (centres undefined) | 2.7 | 631 | 20000 | 
CC(=O)N1CC(C)N(Cc2ccccc2)c2ccccc21 (centres undefined) |  | 1260 | 31600 | 
CC(=O)N1CCN(Cc2ccccc2C(=O)O)c2ccccc21 | 1.2 | 5010 | > 50100 | 
CC(=O)N1c2ccccc2N(Cc2ccccc2CC(=O)O)CC1C1CC1 (centres undefined) | 2.4 | 1000 | > 50100 | IC50 (PBMC): 1260 nM
CC(=O)N1c2ccccc2N(Cc2cc(C)ccc2C(=O)O)CC1C1CC1 (centres undefined) | 2.4 | 2510 | > 50100 | 
CC(=O)N1c2ccccc2N(Cc2ccccc2C(N)=O)CC1C1CC1 (centres undefined) | 3.9 | 1260 | > 50100 | 
CC(=O)N1c2ccccc2N(Cc2ccccc2)CC1C1CC1 (centres undefined) | 6.7 | 631 | 20000 | IC50 (PBMC): 3160 nM
CC(=O)N1c2ccccc2N(Cc2cccc(O)c2)CC1C1CC1 (centres undefined) | 4.9 | 631 | 15800 | 
CC(=O)N1CCN(Cc2cccc(C)c2)c2ccccc21 | 5.9 | 501 | 15800 | IC50 (PBMC): 3160 nM
CC(=O)N1c2ccccc2N(Cc2ccccc2OCCO)CC1C1CC1 (centres undefined) | 4.9 | 316 | 25100 | 
COc1cc(OC)c2c(=O)[nH]c(-c3cc(C)c(OCCO)c(C)c3)nc2c1 [APABETALONE] | 2.9 |  |  | 
CC(=O)N1c2ccccc2N(Cc2ccccc2C#N)CC1C1CC1 (centres undefined) | 6 | 2510 | 25100 | 

Further lines, with some results ahead:

chromatographic logD (physchem; pH 7.4, logD) | IC50 [1] [nM] | IC50 [2] [nM] | SMILES | other results
4.7 | 63.1 | 501 | CCC1CN(Cc2ccccc2)c2cc(-c3cccc(C(N)=O)c3)ccc2N1C(C)=O (centres undefined) | 
4.2 | 50.1 | 398 | CCC1CN(Cc2ccccc2)c2cc(-c3cn[nH]c3)ccc2N1C(C)=O (centres undefined) | 
4.5 | 63.1 | 631 | CCC1CN(Cc2ccccc2)c2cc(-c3ccc(C(N)=O)nc3)ccc2N1C(C)=O (centres undefined) | 
3.5 | 79.4 | 794 | CCC1CN(Cc2ccccc2)c2cc(-c3ccc(=O)[nH]c3)ccc2N1C(C)=O (centres undefined) | 
7.1 | 794 | 12600 | CCC1CN(Cc2cccc(C)c2)c2ccccc2N1C(C)=O (centres undefined) | 
6.3 | 100 | 251 | CCC1CN(Cc2ccccc2)c2cc(-c3cnc(C#N)nc3)ccc2N1C(C)=O (centres undefined) | 
5.9 | 126 | 1580 | CCC1CN(Cc2ccccc2)c2cc(-c3cnoc3)ccc2N1C(C)=O (centres undefined) | 
7.4 | 316 | 2510 | CCC1CN(Cc2ccccc2)c2cc(Br)ccc2N1C(C)=O (centres undefined) | 
6.5 | 631 | 10000 | CCC1CN(Cc2ccccc2)c2ccccc2N1C(C)=O (centres undefined) | 
5.4 | 501 | 5010 | CCC1CN(Cc2ccccc2)c2cc(-c3ccncc3OC)ccc2N1C(C)=O (centres undefined) | 
3.6 | 100 | 2000 | CCC1CN(Cc2ccccc2)c2cc(-c3cnc(C(N)=O)nc3)ccc2N1C(C)=O (centres undefined) | 
6.1 | 126 | 2000 | CCC1CN(Cc2ccccc2)c2cc(-c3cnc(C)cn3)ccc2N1C(C)=O (centres undefined) | 
4.9 | 158 | 3160 | CCC1CN(Cc2ccccc2)c2cc(-c3cncnc3)ccc2N1C(C)=O (centres undefined) | 
4.4 | 50.1 | 398 | CCC1CN(Cc2ccccc2)c2cc(-c3ccc(C(N)=O)cc3)ccc2N1C(C)=O (centres undefined) | 
5.9 | 501 | 15800 | CC(=O)N1c2ccccc2N(Cc2ccccc2)CC1C (centres undefined) | IC50 (PBMC): 1260 nM
5.6 | 100 | 1580 | CCC1CN(Cc2ccccc2)c2cc(-c3cccnc3)ccc2N1C(C)=O (centres undefined) | 
6.5 | 158 | 1580 | CCC1CN(Cc2ccccc2)c2cc(C3=CCOCC3)ccc2N1C(C)=O (centres undefined) | 
